# How the values were obtained:
# [1] = system: ECC-1 cells; test: MTS cell viability, ECC-1; assay type: cell-based; conditions: ECC-1, 48 hours
# Protocol: (§1) Cell lines, Culture, and Reagents. Cells were maintained in either DMEM (SKOV-3, KLE, OVCAR-3, OVCAR8-C5 and IGROV-1) or RPMI-1640 (ECC-1 and HCH-1), supplemented with 10% fetal calf serum (or 20% for OVCAR-3), penicillin (100 units/mL), and streptomycin (100 μg/mL) at 37° C. with 5% CO2 in a humidified incubator. Antibodies were purchased from Abcam (septin-2; ab179436) and Cell Signaling Technology; ERK (9102), p-ERK (4370), -actin (3700), u-Tubulin (2144), EGFR (4267) and HER2 (4290). FCF was purchased from Abcam. All other chemicals were from Sigma Aldrich. Synthesis of Derivaties. […] The reaction was monitored using thin-layer chromatography plates with DCM-MeOH or pure ethyl acetate as eluent. Spots were monitored in a UV chamber. The reaction mixture, upon completion of the reaction, was poured into wet ice mixture and triturated, then the separated solid was filtered by vacuum. The product was washed with hexane, followed by diethyl ether, and was dried under vacuum. The compounds were characterized by spectrophotometric techniques. Quantitative Real-Time PCR. The indicated cell lines were transfected with siRNA targeting septin-2 or non-targeting control siRNA (Santa Cruz Biotechnology: sc-37007 or sc-40936) using Lipofectamine 3000 (Invitrogen). […] Quantitative real-time PCR was conducted using QuantStudio 12 K Flex Real-Time PCR System (ABI) and the Taqman Gene Expression Assay (ABI) consisting of the FAM-labeled probes as follows: SEPT2 (Hs01565417_ml); WFDC2 (Hs00899484_ml); TBP (Hs00427620_ml) or B2M (Hs00187842_ml), which was used as reference for normalization. […] Cell viability, proliferation, and cellular apoptosis were measured using the MTS (Promega), BrdU cell proliferation (Cell Signaling Technology), and Caspase-Glo 3/7 apoptosis detection (Promega) assays, following the respective manufacturer's recommendations with suitable modification. […] Survival curves between septin high and low population and their statistical significance were analyzed using GraphPad Prism software (Mantel-Cox test). […]
# [2] = system: HER2; test: Western blot of HER2 expression in ECC-1 and HCH-1 cells; assay type: cell-based; conditions: UR214-7 33 μM, UR214-9 33 μM, FCF 300 μM, 24 hours
# Protocol: as §1
SMILES,"viability ([1]; MTS, lower dose ranges)",HER2 expression [2],concentration inhibiting viability ([1]; MTS (FIG. 2B))
"O=C(Nc1ccccc1)Nc1ccnc(Cl)c1 [FCF, N-(2-chloro-4-pyridyl)-N′-phenylurea, reference compound]",lacked activity,inhibition of HER2 expression,–
O=C(Nc1cc(Cl)nc(Cl)c1)Nc1cccc(SC(F)(F)F)c1F [UR214-9],–,inhibition of HER2 expression,around 33 μM
